For assay [1], the system named is acetylcholine (ACh) in CSF. Kind of assay: Measurement of acetylcholine (ACh) in rat cerebrospinal fluid (CSF). The assay is classed as in vivo. Conditions: Fischer344 rat, oral 10 mg/kg once a day for three days, CSF 24 hours after administration, LC-MS. How it is done:
Measurement of Acetylcholine (ACh) in Rat Cerebrospinal Fluid (CSF)
Thus, the changes in acetylcholine in CSF were measured in order to determine the changes in intracerebral acetylcholine by the test compounds.
(2) Compound Administration
In this study, Fischer344 male rats (Charles River Laboratories Japan, Inc.) with a body weight of about 150 to 250 g were used. The test compounds were orally administered to the rats once a day at 10 mg/kg for three days. The vehicle used was 0.01 mol/L hydrochloric acid.
At 24 hours after the administration of the vehicle and the test compounds, the CSF was collected from cistema magna in a tube containing AchE inhibitors under pentobarbital anesthesia. The collected CSF was centrifuged at 3500×g at 4° C. for 10 minutes and the supernatant was collected. The collected supernatant was frozen with liquid nitrogen, and then stored at −80° C.
(4) Measurement of Ach by LC-MS
To 10 μL of the CSF was added 50 μL of acetylcholine-d9 chloride (ACh-d9) at a final concentration of 0.34 nmol/L as an internal standard. […] The supernatant was collected and subjected to LC/MS […], and Ach was detected as precursor ion at m/z 146.050 and as product ion at m/z 87.071 and ACh-d9 as an internal standard was detected as precursor ion at m/z 155.088 and as product ion at m/z 87.000. […]

Assay [2] deals with Choline Acetyltransferase (ChAT) mRNA. As to the kind of experiment: Measurement of choline acetyltransferase (ChAT) mRNA expression levels in the rat septal area. The assay is classed as in vivo. Conditions: SD rat medial septum, oral 10 mg/kg, 24 hours after administration, qPCR. The protocol:
Measurement of Choline Acetyltransferase (ChAT) mRNA Expression Levels in the Rat Septal Area
(1) Compound Administration
In this study, SD male rats (Charles River Laboratories Japan, Inc.) with a body weight of about 250 to 350 g were used. The compound was dissolved in 0.01 mol/L hydrochloric acid, and orally administered.
At 24 hours after the administration of the compound, the whole brain tissue was collected under pentobarbital anesthesia. The medial septum was isolated from whole brain on ice and frozen with liquid nitrogen, and then stored at −80° C.
(3) Measurement of ChAT mRNA Expression Levels
For RNA purification, RNeasy Plus Mini Kit (#74136: QIAGEN) was used in this study. RNA purification was performed by the method described in the kit. After RNA purification, the total RNA concentration was measured by using QIAxpert Instrument (QIAGEN). cDNA was synthesized using SuperScript® VILO™ cDNA Synthesis Kit (#11754: Thermo Fisher Scientific). The synthesis of cDNA was performed by the method described in the kit. The synthesized cDNA was diluted 4 times with RNase free water, and the diluted cDNA solution was used as a sample. Taqman Universal PCR Master Mix (#4304437: Thermo Fisher Scientific), Taqman® Gene Expression Assays, INVENTORIED (#4331182: Thermo Fisher Scientific), RNase free water, and the cDNA solution were mixed in amounts of 10 μl, 1 μl, 4 μl, and 5 μl, respectively, and the resulting mixture was used as a measurement sample solution. Quantitative polymerase chain reaction (qPCR) was conducted using ABI PRISM® 7900HT (Thermo Fisher Scientific) by a fluorescence probe method. Analysis was performed by SDS 2.4 (Thermo Fisher Scientific). The results were calculated by the percentage of the amount of ChAT mRNA expression levels in the compound administration group increased from the amount of ChAT mRNA expression levels in the vehicle administration group.

In the case of `CN1CCc2c(sc3nc4n(c(=O)c23)-c2ccc(F)cc2C(=O)N(C)C4)C1` [Example 1], the “Amount (%) increased with respect to from the amount of ACh in CSF the vehicle administration group” value in assay [1] is 160.0%. Also, the “Amount (%) increased from the amount of ChAT mRNA expression levels in the vehicle administration group” value in assay [2] is recorded as 73.3%.

For `CN1CCc2c(sc3nc4n(c(=O)c23)-c2sccc2C(=O)N(C)C4)C1` [Example 3, 5,10-dimethyl-5,6,9,10,11,12-hexahydropyrido[4″,3″:4′,5′]thieno[2′,3′:4,5]pyrimido[1,2-a]thieno[3,2-f][1,4]diazepine-4,13-dione], the “Amount (%) increased with respect to from the amount of ACh in CSF the vehicle administration group” value in assay [1] stood at 156.8%. The “Amount (%) increased from the amount of ChAT mRNA expression levels in the vehicle administration group” value in assay [2] was determined as 56.4%.

The values are drawn from patent US10239889B1, “Pentacyclic compound” (Eisai R&D Management Co., Ltd., priority 2017, dated 2019).
